In brackets after ≈: the same amount, converted by molar mass. Activity calls are given as the source filed them. The rule behind the calls is not given here.

Consider eleven compounds from ChEMBL document CHEMBL4265960, “Dithiocarbamates: Efficient metallo-β-lactamase inhibitors with good antibacterial activity when combined with meropenem” (Bioorg Med Chem Lett, 2018).

For data set [1], the system named is Escherichia coli. Put plainly: Inhibition of Escherichia coli IMP4 assessed as potentiation of meropenem-induced antibacterial activity by measuring zone of inhibition at 10 uL after 16 to 18 hrs by disc diffusion method (reference value: 9.8 +/- 0.6 millimeter).
The target of data set [2] is T1, Metallo-beta-lactamase NDM-4 (Escherichia coli) (UniProt H6WZS9).
T1 sequence (whole entry): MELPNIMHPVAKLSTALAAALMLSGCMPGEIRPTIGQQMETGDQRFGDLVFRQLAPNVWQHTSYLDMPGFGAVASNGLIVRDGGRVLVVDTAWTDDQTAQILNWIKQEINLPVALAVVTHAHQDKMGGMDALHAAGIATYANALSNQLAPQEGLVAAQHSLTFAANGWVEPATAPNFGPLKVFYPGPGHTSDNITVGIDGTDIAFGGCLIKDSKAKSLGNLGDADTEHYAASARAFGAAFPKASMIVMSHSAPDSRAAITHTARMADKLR
The data set is described as follows: Inhibition of Escherichia coli NDM4 assessed as potentiation of meropenem-induced antibacterial activity by measuring zone of inhibition at 10 uL after 16 to 18 hrs by disc diffusion method (reference value: 9.6 +/- 0.5 millimeter). (A growth-free zone around the sample is the usual read-out of agar diffusion tests.)

Data set [3] concerns Escherichia coli. Put plainly: Inhibition of Escherichia coli IMP4 assessed as potentiation of meropenem-induced bactericidal activity by measuring reduction in bacterial colonies at 4 to 8 times MIC incubated for 3 hrs followed by replating on agar plates and further incubated for 16 to 18 hrs measured for 24 hrs by time kill assay.
For data set [4], the system named is Escherichia coli. Put plainly: Inhibition of Escherichia coli IMP4 assessed as potentiation of meropenem-induced bactericidal activity by measuring reduction in bacterial colonies at 8 times MIC incubated up to 3 hrs followed by replating on agar plates and further incubated for 16 to 18 hrs measured for 24 hrs by time kill assay.
The test system of data set [5] is Citrobacter freundii. The data set is described as follows: Inhibition of Citrobacter freundii NDM1 assessed as potentiation of meropenem-induced antibacterial activity by measuring meropenem MIC at 64 ug/ml after 16 to 18 hrs by broth microdilution method (reference value: 20 ug/ml). Background: Broth dilution looks for growth in wells or tubes with falling amounts of substance.

Data set [6] concerns the target Metallo-beta-lactamase type 2 (Klebsiella pneumoniae) (UniProt C7C422).
Description: Inhibition of Klebsiella pneumoniae NDM1 assessed as potentiation of meropenem-induced antibacterial activity by measuring meropenem MIC at 64 ug/ml after 16 to 18 hrs by broth microdilution method (Rvb = 40 to 80 ug/ml)
Data set [7] deals with Escherichia coli. The data set is described as follows: Inhibition of Escherichia coli IMP4 assessed as potentiation of meropenem-induced antibacterial activity by measuring meropenem MIC at 64 ug/ml after 16 to 18 hrs by broth microdilution method (reference value: 20 to 160 ug/ml).
The subject of data set [8] is Escherichia coli. The data set is described as follows: Inhibition of Escherichia coli IMP4 assessed as potentiation of meropenem-induced bactericidal activity by measuring bacterial count at 4 times MIC incubated for 8 hrs followed by replating on agar plates and further incubated for 16 to 18 hrs measured for 24 hrs by time kill assay.
Data set [9] concerns the target Beta-lactamase (Klebsiella pneumoniae) (UniProt Q4LDF1).
Description: Inhibition of Klebsiella pneumoniae IMP4 assessed as potentiation of meropenem-induced antibacterial activity by measuring meropenem MIC at 64 ug/ml after 16 to 18 hrs by broth microdilution method (Rvb = 20 to 40 ug/ml)
In data set [10] the test system is Proteus mirabilis. The data set is described as follows: Inhibition of Proteus mirabilis NDM1 assessed as potentiation of meropenem-induced antibacterial activity by measuring meropenem MIC at 64 ug/ml after 16 to 18 hrs by broth microdilution method (reference value: 20 to 160 ug/ml).
Data set [11] deals with Beta-lactamase NDM-1 (Escherichia coli) (UniProt E5KIY2).
Description: Inhibition of Escherichia coli NDM1 assessed as potentiation of meropenem-induced antibacterial activity by measuring meropenem MIC at 64 ug/ml after 16 to 18 hrs by broth microdilution method (Rvb = 10 to 320 ug/ml)
The test system of data set [12] is HeLa. Put plainly: Cytotoxicity against human HeLa cells after 24 hrs by CCK8 assay. The class given is cell-based. (In general: Formazan colour is commonly taken as a measure of viable cells.)
Data set [13] has as its system Escherichia coli. Put plainly: Toxicity against Escherichia coli harboring NDM1 after 16 to 18 hrs by broth microdilution method. The class given is organism-based.
Data set [14] concerns Proteus mirabilis. The data set is described as follows: Inhibition of Proteus mirabilis NDM1 assessed as potentiation of meropenem-induced antibacterial activity by measuring fold reduction in meropenem MIC at 64 ug/ml after 16 to 18 hrs by broth microdilution method relative to meropenem alone.
Data set [15] concerns HeLa. Put plainly: Cytotoxicity against human HeLa cells at 32 ug/ml after 24 hrs by calcein-AM/propidium iodide staining based fluorescence microscopic analysis. The class given is cell-based.
For data set [16], the system named is Escherichia coli. Put plainly: Toxicity against Escherichia coli harboring IMP4 assessed as reduction in bacterial growth after 16 to 18 hrs by broth microdilution method. The class given is organism-based.
The test system of data set [17] is Escherichia coli. Put plainly: Inhibition of Escherichia coli IMP4 assessed as potentiation of meropenem-induced bactericidal activity by measuring bacterial count at 8 times MIC incubated for 24 hrs followed by replating on agar plates and further incubated for 16 to 18 hrs measured for 24 hrs by time kill assay.
Another data set has as its system Erythrocyte. The data set is described as follows: Hemolytic activity against sheep RBC at 1.953 to 1000 ug/ml after 1 hr. The class given is ADME, cell-based, Ovis aries.
In data set [18] the test system is Escherichia coli. The data set is described as follows: Inhibition of Escherichia coli IMP4 assessed as potentiation of meropenem-induced bactericidal activity by measuring reduction in bacterial colonies at 8 times MIC incubated up to 8 hrs followed by replating on agar plates and further incubated for 16 to 18 hrs measured for 24 hrs by time kill assay.
Data set [19] concerns Escherichia coli. Put plainly: Inhibition of Escherichia coli IMP4 assessed as potentiation of meropenem-induced bactericidal activity by measuring bacterial count at 4 times MIC incubated for 24 hrs followed by replating on agar plates and further incubated for 16 to 18 hrs measured for 24 hrs by time kill assay.
Data set [20] deals with Escherichia coli. The data set is described as follows: Inhibition of Escherichia coli IMP4 assessed as potentiation of meropenem-induced antibacterial activity by measuring reduction in bacterial growth at 64 ug/ml after 16 to 18 hrs in presence of ZnCl2 by broth microdilution method.
For data set [21], the target named is Beta-lactamase NDM-1 (Escherichia coli) (UniProt E5KIY2). The source holds these as a separate data set.
Description: Inhibition of Escherichia coli NDM1 assessed as potentiation of meropenem-induced bactericidal activity by measuring meropenem MBC after 20 to 24 hrs in presence of 50% blood
Data set [22] has as its system Escherichia coli. Put plainly: Inhibition of Escherichia coli IMP4 assessed as potentiation of meropenem-induced antibacterial activity by measuring bacterial growth at 64 ug/ml after 16 to 18 hrs by broth microdilution method (reference value: 93.43 +/- 2.12%). The arrangement: scale not given: the % may be the effect or the level left.
Data set [23] deals with Beta-lactamase NDM-1 (Escherichia coli) (UniProt E5KIY2). The source holds these as a separate data set.
Description: Inhibition of Escherichia coli NDM1 assessed as potentiation of meropenem-induced bactericidal activity by measuring meropenem MBC after 20 to 24 hrs in presence of 50% serum
Data set [24] concerns Citrobacter freundii. The data set is described as follows: Inhibition of Citrobacter freundii NDM1 assessed as potentiation of meropenem-induced antibacterial activity by measuring fold reduction in meropenem MIC at 64 ug/ml after 16 to 18 hrs by broth microdilution method relative to meropenem alone.

For the compound `O=C(O)CN1CCN(CC(=O)O)CCN(CC(=O)O)CC1`, the inhibition zone (IZ) turned out to be 20.3 mm with Escherichia coli [1] and 22.9 mm in data set [2]. Besides, the outcome in the data set with Escherichia coli [3] was Active.

A word on the IC50: it is the concentration at which inhibition is half-maximal. Regarding `CCN(CC)C(=S)[S-].[Na+]` [DITIOCARB SODIUM], the result with Escherichia coli [4] was Active. Moreover, the MIC in the data set on Citrobacter freundii [5] was under 0.0312 µg/mL; in [6] it was under 2 µg/mL; with Escherichia coli [7], under 16 µg/mL; in data set [9], under 2 µg/mL; with Proteus mirabilis [10], 0.5 to 4 µg/mL; in data set [11] it was 1 to 16 µg/mL. In addition, in the data set with Escherichia coli [8], the Activity was 3 to 4 log10CFU/ml. Further, the inhibition zone (IZ) in the data set on Escherichia coli [1] is 17.2 mm; in data set [2], 18.9 mm. In addition, in the data set on HeLa [12], the IC50 is over 1280 µg/mL.

With `CCCCCCNC(=S)S`, the MIC result (in the data set on Citrobacter freundii [5]; in [6]) was “inactive” in each case. Also, the MIC in the data set on Escherichia coli [7] was 2 to 16 µg/mL; in data set [9], 16 µg/mL (≈ 90.2 µM); with Proteus mirabilis [10] it was 0.25 µg/mL; in [11] it was 16 µg/mL (≈ 90.2 µM). Moreover, the “inhibition zone (IZ)” value (in the data set on Escherichia coli [1]; in data set [2]) was “inactive” in each case.

`CCCCCCCCN(CCCCCCCC)C(=S)S`: the MIC with Citrobacter freundii [5] is 4 µg/mL; in [6], 1 to 8 µg/mL (≈ 3.15 to 25.2 µM); in the data set with Escherichia coli [7] it was 1 to 8 µg/mL; in data set [9], under 1 µg/mL; in the data set with Proteus mirabilis [10] it was 2 to 4 µg/mL; in data set [11], 4 to 16 µg/mL (≈ 12.6 to 50.4 µM). For the same compound, the “inhibition zone (IZ)” value (in the data set on Escherichia coli [1]; in data set [2]) was “inactive” in each case.

Consider `S=C([S-])N1CCCC1.[Na+]`, for which the MIC in [6] is under 0.0312 µg/mL; in the data set on Escherichia coli [13], over 128 µg/mL; in the data set on Escherichia coli [7], under 16 µg/mL; in [9], under 0.0312 µg/mL; in the data set with Proteus mirabilis [10], 2 to 8 µg/mL; in data set [11], 2 µg/mL. In addition, in the data set with Proteus mirabilis [14], the fold change (FC) is under 320. The inhibition zone (IZ) with Escherichia coli [1] was 22.8 mm; in data set [2] it was 22.1 mm. For the same compound, the Activity entry in the data set with HeLa [15] is “Non-Toxic”; in the data set with Escherichia coli [16] it was “Non-Toxic”; with Escherichia coli [17], 9 to 10 log10CFU/ml; with Erythrocyte it was “Non-Toxic”. In addition, the concentration for half-maximal inhibition (IC50) in the data set with HeLa [12] was determined as 349 µg/mL.

In turn, `CCN(CC)C(=S)[S][Na]` [DITIOCARB SODIUM] displayed an MIC against Escherichia coli [13] of over 128 µg/mL. For the same compound, the Activity entry in the data set on HeLa [15], in the data set with Escherichia coli [16] and in the data set with Erythrocyte was “Non-Toxic” each time.

For the compound `S=C(S)N1CCOCC1`, the MIC in the data set on Citrobacter freundii [5] is 2 µg/mL; in [6] it was 4 to 16 µg/mL (≈ 24.5 to 98 µM); with Escherichia coli [7] it was 2 to 16 µg/mL; in data set [9], 8 to 16 µg/mL (≈ 49 to 98 µM); in the data set on Proteus mirabilis [10], 16 µg/mL; in [11], 8 µg/mL (≈ 49 µM).

With `CCCCCCCCCCCCCCNC(=S)S`, the MIC result (in the data set with Citrobacter freundii [5]; in [6]; with Escherichia coli [7]; in [9]; with Proteus mirabilis [10]; in data set [11]) was “inactive” throughout. For the same compound, the “inhibition zone (IZ)” value (with Escherichia coli [1]; in [2]) was “inactive” throughout.

For `CCCCCCN(CCCCCC)C(=S)S`, the MIC in the data set with Citrobacter freundii [5] is 8 µg/mL; in data set [6], 8 to 16 µg/mL (≈ 30.6 to 61.2 µM); in the data set on Escherichia coli [7], 4 to 16 µg/mL; in data set [9] it was 16 µg/mL (≈ 61.2 µM); with Proteus mirabilis [10] it was 8 to 16 µg/mL; in [11], 8 µg/mL (≈ 30.6 µM). For the same compound, the “inhibition zone (IZ)” value (in the data set with Escherichia coli [1]; in data set [2]) was “inactive” in each case.

On to `S=C(S)N1CCN(C(=S)S)CC1`, for which the MIC in the data set with Citrobacter freundii [5] was 2 µg/mL; in data set [6] it was 4 to 16 µg/mL (≈ 16.8 to 67.1 µM); in the data set on Escherichia coli [7], 4 to 16 µg/mL; in data set [9], 8 to 16 µg/mL (≈ 33.6 to 67.1 µM); in the data set on Proteus mirabilis [10], 4 to 8 µg/mL; in data set [11], 8 to 16 µg/mL (≈ 33.6 to 67.1 µM). Moreover, the “inhibition zone (IZ)” value (in the data set on Escherichia coli [1]; in data set [2]) was “inactive” each time.

With `S=C([S-])N1CCCCC1.[Na+]`, the outcome in the data set with Escherichia coli [18] was Active. The Activity is 1 to 2 log10CFU/ml with Escherichia coli [19]; “Non-Toxic” with HeLa [15]; 3.55% in the data set with Escherichia coli [22]; “Non-Toxic” in the data set on Escherichia coli [16]; “Non-Toxic” in the data set with Erythrocyte. Moreover, the result with Escherichia coli [20] was inactive. Also, the MIC was under 0.0312 µg/mL in [6]; over 128 µg/mL against Escherichia coli [13]; under 16 µg/mL with Escherichia coli [7]; under 0.0312 µg/mL in [9]; 4 to 16 µg/mL in the data set on Proteus mirabilis [10]; 0.25 µg/mL in [11]. The fold change (FC) in the data set with Proteus mirabilis [14] and with Citrobacter freundii [24] was under 320 throughout. Moreover, the inhibition zone (IZ) worked out at 24.2 mm in the data set on Escherichia coli [1] and 23.9 mm in [2]. The MBC is 1 µg/mL in [21] and under 0.0312 µg/mL in data set [23]. Besides, the midpoint of inhibition with HeLa [12], the IC50, lay at 634 µg/mL.
